Assays:
[1] = cited from earlier work
high-risk mCSPC = settings: cited from earlier work
prostate cancer = settings: cited from earlier work
[2] = equivalent glucocorticoid dose; cited from earlier work
[3] = tested on: plasma proteins, primarily albumin; settings: cited from earlier work
[4] = tested on: prostate cancer with mutations in DNA repair genes; settings: cited from earlier work
[5] = cited from earlier work; remark: listed apart in the source
[6] = Chemical compatibility of Olaparib with prednisolone on storage; type: physicochemical; settings: Olaparib and Prednisolone combined, 1 month in sealed containers at 40° C. and 75% RH
Protocol: An experiment was carried out to determine whether Olaparib is chemically compatible with prednisolone, both alone and in the co-amorphous form.

## CC(=O)O[C@H]1CC[C@@]2(C)C(=CC[C@@H]3[C@@H]2CC[C@]2(C)C(c4cccnc4)=CC[C@@H]32)C1 [Abiraterone acetate, [(3S,8R,9S,10R,13S,14S)-10,13-dimethyl-17-pyridin-3-yl-2,3,4,7,8,9,11,12,14,15-decahydro-1H-cyclopenta[a]phenanthren-3-yl] acetate]
[1]
  water solubility: less than 1 mg/mL
high-risk mCSPC; 1000 mg daily with prednisone 5 mg twice daily and GnRH agonist/antagonist
  mOS: 53.3 months
high-risk mCSPC; 1000 mg daily with prednisone and GnRH agonist/antagonist
  mPFS: 33.0 months
high-risk mCSPC; 95% CI, 0.39-0.55, P<0.001
  HR for mPFS vs placebo group: 0.47
high-risk mCSPC; P<0.001
  HR for mOS vs placebo arm: 0.62
Prostate cancer; P<0.001
  HR for survival vs ADT-alone group: 0.63
Prostate cancer; in vivo
  3-year survival rate: 83%

## CC(=O)OCC(=O)[C@@]1(O)CC[C@H]2[C@@H]3CCC4=CC(=O)CC[C@]4(C)[C@H]3C(=O)C[C@@]21C [Cortisone acetate]
[2]
  Equivalent amount: 25 mg

## CNC(=O)c1ccc(N2C(=S)N(c3ccc(C#N)c(C(F)(F)F)c3)C(=O)C2(C)C)cc1F [Enzalutamide, 4-[3-[4-cyano-3-(trifluoromethyl)phenyl]-5,5-dimethyl-4-oxo-2-sulfanylideneimidazolidin-1-yl]-2-fluoro-N-methylbenzamide]
[1]
  water solubility: less than 1 mg/mL

## C[C@]12CCC(=O)C=C1CC[C@@H]1[C@@H]2[C@@H](O)C[C@@]2(C)[C@H]1CC[C@]2(O)C(=O)CO [Hydrocortisone]
[2]
  Equivalent amount: 20 mg

## CC1(C)C(=O)N(c2ccc(C#N)c(C(F)(F)F)c2)C(=S)N1c1ccc(C(N)=O)c(F)c1 [N-desmethyl enzalutamide]
[3]
  bound to plasma proteins: 95%

## O=C(c1cc(Cc2n[nH]c(=O)c3ccccc23)ccc1F)N1CCN(C(=O)C2CC2)CC1 [Olaparib]
[4]; cohort A (BRCA1, BRCA2 or ATM alterations)
  median time lived without evidence of cancer getting worse: 7.4 months
[4]; cohort A, versus abiraterone or enzalutamide
  improvement of survival versus control: more than 4 months
[4]; cohort A
  overall survival: 19.1 months
[4]; in vivo
  tumor response (tumors shrink): 33%
[5]; after 7 days, total
  administered dose recovered: approximately 86%
[5]; after 7 days
  administered dose found in urine: 44%
  administered dose obtained in feces: 42%
[5]; after a dose of 200 mg
  AUC: 25800 ng·h/mL
[5]; constant administration
  increase of AUC with constant administration: 26%
[5]; following oral administration
  time to peak concentration: 1 to 3 h
[5]; high-fat diet
  effect of high-fat diet on peak concentration: does not have an effect in the peak concentration
  effect of high-fat diet on tmax: can decrease the tmax
[5]; in vivo
  unchanged form, share of the circulating dose: 70%
[1]
  water solubility: about 0.06 mg/mL
[6]
  Degradation on combined storage: No degradations

## C[C@@H]1C[C@H]2[C@@H]3C[C@H](F)C4=CC(=O)C=C[C@]4(C)[C@H]3[C@@H](O)C[C@]2(C)[C@@]1(O)C(=O)CO [Paramethasone]
[2]
  Equivalent amount: 2 mg

## C[C@]12C=CC(=O)C=C1CC[C@@H]1[C@@H]2[C@@H](O)C[C@@]2(C)[C@H]1CC[C@]2(O)C(=O)CO [Prednisolone]
[6]
  Degradation on combined storage: No degradations
[2]
  Equivalent amount: 5 mg

## C[C@]12C=CC(=O)C=C1CC[C@H]1[C@@H]3C[C@@H](O)[C@](O)(C(=O)CO)[C@@]3(C)C[C@H](O)[C@@]12F [Triamcinolone]
[2]
  Equivalent amount: 4 mg

From US20240269073A1, “CO-AMORPHOUS FORMS FOR USE IN CANCER THERAPY” (Zerion Pharma APS, priority 2021, published 2024)
